Laboratory results from PMC12040169 (PLOS Biology, 2025).

Test: in vitro
Conditions: human, hela cells, % viability

O=S(=O)(NCCN1CCOCC1)c1cc(Cl)ccc1Cl [CBK261757]
viability at 28.5 h, 10 µM: 85.1%

CC(C)OCC(O)C[S+]([O-])Cc1ccccc1 (stereo not shown) [CBK261761]
viability at 28.5 h, 10 µM: 93.4%

NNC(=O)c1cc(-c2ccccc2)nc2ccc(Br)cc12 [CBK261762]
viability at 28.5 h, 10 µM: 102%

Cc1cc(C)nc(SCCN2CCOCC2)n1 [CBK261769C]
viability at 28.5 h, 10 µM: 93.8%

Cc1cc(/C=N/O)c(C)c(COCc2cc(C)cc(/C=N/O)c2C)c1 [CBK261770]
viability at 28.5 h, 10 µM: 91.2%

COc1ccc(Oc2cc(Cl)nc(N)n2)cc1 [CBK261771]
viability at 28.5 h, 10 µM: 101%

CC(C)(C)c1ccc(OCC(O)CSc2nnc[nH]2)cc1 (stereo not shown) [CBK261776]
viability at 28.5 h, 10 µM: 103%

c1ccc(Oc2cccc(OCCCN3CCCCC3)c2)cc1 [CBK261781]
viability at 28.5 h, 10 µM: 95.2%

O=C(NN=C1CCCCC1)C(O)(c1ccccc1)c1ccccc1 [CBK261783]
viability at 28.5 h, 10 µM (bulk resorufin, single well): 91.1%

Brc1ccc(OCCCCCCN2CCCCC2)cc1 [CBK261784]
viability at 28.5 h, 10 µM: 97%

O=C(O)/C=C/C(=O)NNC(=O)c1ccccc1Br [CBK261786]
viability at 28.5 h, 10 µM: 111%

CC1=NN(c2ccc([N+](=O)[O-])cc2)C(=O)/C1=C\NCCN1CCN(C(=O)c2ccc(Br)cc2)CC1 [CBK261788]
viability at 28.5 h, 10 µM: 110%

O=C(O)CC(C(=O)O)N1C(=O)/C(=C2/C(=O)Nc3ccc(Br)cc32)SC1=S (stereo not shown) [CBK261791]
viability at 28.5 h, 10 µM: 104%

CC(=O)Oc1cccc(NC(=O)CC2Sc3ccccc3NC2=O)c1 (stereo not shown) [CBK261792]
viability at 28.5 h, 10 µM: 92%

O=C(/C=C/c1ccccc1Cl)NCCc1ccccc1 [CBK261794]
viability at 28.5 h, 10 µM: 97.5%

NNc1nc(-c2ccccc2)cc(-c2ccc(Br)cc2)n1 [CBK261795]
viability at 28.5 h, 10 µM: 107%

O=[N+]([O-])c1ccc(S(=O)(=O)NCCc2nc3ccccc3[nH]2)cc1 [CBK261796]
viability at 28.5 h, 10 µM: 112%

COc1ccc(-c2csc(Nc3ccc(S(=O)(=O)Nc4cc(C)on4)cc3)n2)cc1OC [CBK261797B]
viability at 28.5 h, 10 µM: 95.3%

COc1ccc(/C=N\N(C)c2nc(-c3ccccc3)cc(-c3ccc(Br)cc3)n2)cc1OC [CBK261799]
viability at 28.5 h, 10 µM: 104%

Cc1ccc(OP(=O)(NCCN2CCOCC2)Oc2ccc(C)cc2)cc1 [CBK261802]
viability at 28.5 h, 10 µM (bulk resorufin, single well): 107%

O=C(NCCc1nc2ccccc2[nH]1)Nc1ccccc1 [CBK261803]
viability at 28.5 h, 10 µM: 103%

O=C(/C=C/c1ccccc1)NC(NCc1cccnc1)C(Cl)(Cl)Cl (stereo not shown) [CBK261804]
viability at 28.5 h, 10 µM: 95.3%

COc1cccc(OCCCCCc2c(C)n[nH]c2C)c1 [CBK261805]
viability at 28.5 h, 10 µM: 104%

c1ccc2[nH]c(CCc3nc4ccccc4[nH]3)nc2c1 [CBK261807]
viability at 28.5 h, 10 µM: 111%

Cc1cc(SCC(C)C)n2ncnc2n1 [CBK261808]
viability at 28.5 h, 10 µM: 112%

O=C(O)C/N=C1/CCCc2ccccc2N1 [CBK261809]
viability at 28.5 h, 10 µM: 90.7%

CC(=O)N(Cc1ccccc1)C1CCCc2c1[nH]c1ccc(C)cc21 (stereo not shown) [CBK261810]
viability at 28.5 h, 10 µM: 98%

O=C(O)c1ccc(-c2ccc(/C=c3\sc4nc5ccccc5n4c3=O)o2)cc1 [CBK261817]
viability at 28.5 h, 10 µM: 99.3%

O=C1NC(=S)N/C1=C/c1cc2c(cc1Cl)OCO2 [CBK261818]
viability at 28.5 h, 10 µM: 91.5%

O=C1CSC(=O)N1CNc1ccc(Br)cc1 [CBK261819]
viability at 28.5 h, 10 µM: 90.2%

CN(C)CCCN/C=C1/C(=O)NC(=S)N(c2ccc(Cl)cc2)C1=O [CBK261828]
viability at 28.5 h, 10 µM (bulk resorufin, single well): 91.6%

Cc1ccccc1N1C(=O)NC(=O)/C(=C/NCCCn2ccnc2)C1=O [CBK261829]
viability at 28.5 h, 10 µM (bulk resorufin, single well): 107%

C=CCc1ccc(OCC(=O)NN)c(OC)c1 [CBK261831]
viability at 28.5 h, 10 µM: 97.5%

CCOC1C(OCC)N(S(=O)(=O)c2ccc(C)cc2)CCN1S(=O)(=O)c1ccc(C)cc1 (stereo not shown) [CBK261832]
viability at 28.5 h, 10 µM: 116%

CC(C)(CO)NC(=O)COc1ccc(Cl)cc1 [CBK261833]
viability at 28.5 h, 10 µM: 103%

CC(NS(=O)(=O)c1ccc([N+](=O)[O-])cc1)C(=O)O (stereo not shown) [CBK261834]
viability at 28.5 h, 10 µM: 90.5%

O=[N+]([O-])c1cc(C(F)(F)F)ccc1NC(CO)(CO)CO [CBK261838]
viability at 28.5 h, 10 µM: 88.4%

Cc1nonc1NC(=O)CN1CCCCC1 [CBK261839]
viability at 28.5 h, 10 µM: 110%

Cc1nonc1NC(=O)CN1CCCC1 [CBK261840]
viability at 28.5 h, 10 µM: 109%

COc1cc(/C=N/c2ccc(/N=C/c3cc(Br)c(O)c(OC)c3)cc2)cc(Br)c1O [CBK261843]
viability at 28.5 h, 10 µM: 82.7%

O=C(O)/C(O)=C/C(=O)c1ccc(F)cc1 [CBK261844]
viability at 28.5 h, 10 µM: 89.4%

COc1ccc(O)c(CN(C)CCN(C)C)c1 [CBK261854]
viability at 28.5 h, 10 µM: 89.4%

CCN(CC)CCN(C)Cc1ccc2ccc3cccc4ccc1c2c34 [CBK261859]
viability at 28.5 h, 10 µM (bulk resorufin, single well): 103%

COc1ccc(CCN(C)Cc2ccncc2)cc1OC [CBK261861]
viability at 28.5 h, 10 µM: 98.4%

O=[N+]([O-])c1ccccc1/C=C/CN1CCN(C/C=C/c2ccccc2)CC1 [CBK261864]
viability at 28.5 h, 10 µM: 93%

CN(C)CCN(Cc1ccccc1)Cc1c(F)cccc1Cl [CBK261867]
viability at 28.5 h, 10 µM: 112%

CCOC(=O)N1CCN(Cc2ccc(O)c(OC)c2)CC1 [CBK261873]
viability at 28.5 h, 10 µM: 98.5%

CC(CCN1CCN(CCO)CC1)c1ccccc1 (stereo not shown) [CBK261876]
viability at 28.5 h, 10 µM: 102%

c1ccc(CCCN2CCN(Cc3ccccc3)CC2)cc1 [CBK261878]
viability at 28.5 h, 10 µM: 90.1%

CC(CCN1CCN(C)CC1)c1ccccc1 (stereo not shown) [CBK261881]
viability at 28.5 h, 10 µM: 88.5%

COc1cc(CN2CCN(C/C=C/c3ccccc3)CC2)cc(I)c1O [CBK261882]
viability at 28.5 h, 10 µM: 91.7%

COc1ccc(CN2CCN(C)CC2)cc1OCc1ccccc1 [CBK261886]
viability at 28.5 h, 10 µM: 88.2%

COc1ccccc1/C=C/CN(C)CCN(C)C [CBK261888]
viability at 28.5 h, 10 µM: 88.5%

CN(C/C=C/c1ccccc1[N+](=O)[O-])CCc1ccccn1 [CBK261890]
viability at 28.5 h, 10 µM: 92.5%

Cl/C(=C\c1ccccc1)CN1CCOCC1 [CBK261892]
viability at 28.5 h, 10 µM: 114%

COc1ccc(CN2CCN(c3ccc(F)cc3)CC2)cc1OCc1ccccc1 [CBK261894]
viability at 28.5 h, 10 µM: 95%

CC(O)CN(CC(C)O)CC1CC2C=CC1C2 (stereo not shown) [CBK261896]
viability at 28.5 h, 10 µM: 90.4%

COc1cc(CN2CCN(c3cc(C)ccc3C)CC2)ccc1OCc1ccccc1 [CBK261898]
viability at 28.5 h, 10 µM: 86.6%

COc1ccc(CN2CCN(c3ccccc3F)CC2)cc1OCc1ccccc1 [CBK261900]
viability at 28.5 h, 10 µM: 115%

CC(CCN1CCN(Cc2ccccc2)CC1)c1ccccc1 (stereo not shown) [CBK261902]
viability at 28.5 h, 10 µM: 89.1%

CN(C)c1ccc(/C=C/CN2CCN(c3ccc([N+](=O)[O-])cc3)CC2)cc1 [CBK261904]
viability at 28.5 h, 10 µM: 96.9%

COc1cccc(CN(C)CCN(C)C)c1O [CBK261905]
viability at 28.5 h, 10 µM: 102%

OCCN(CCO)CC1CC=CCC1 (stereo not shown) [CBK261907]
viability at 28.5 h, 10 µM: 108%

OCCN(Cc1ccccc1)Cc1ccc(Cl)c(Cl)c1 [CBK261908]
viability at 28.5 h, 10 µM: 117%

COc1ccc(CCN(C)Cc2ccccn2)cc1OC [CBK261912]
viability at 28.5 h, 10 µM: 88.8%

COc1ccc2ccccc2c1CN1CCN(Cc2ccccc2)CC1 [CBK261913]
viability at 28.5 h, 10 µM: 98.5%

CCN(CCC(C)c1ccccc1)CCN(C)C (stereo not shown) [CBK261914]
viability at 28.5 h, 10 µM: 94.6%

Fc1ccc(N2CCN(Cc3cccc(OCc4ccccc4)c3)CC2)cc1 [CBK261916]
viability at 28.5 h, 10 µM: 94.6%

CCN(CC)CCN(C)C1CCN(C)CC1 [CBK261917]
viability at 28.5 h, 10 µM: 94.7%

CCCN1CCC(N2CCN(CCO)CC2)CC1 [CBK261920]
viability at 28.5 h, 10 µM: 79.9%

CN(C)c1ccc(CN(CCO)CCO)cc1 [CBK261921]
viability at 28.5 h, 10 µM: 88.3%

C(=C\c1ccccc1)/CN1CCN(C2CCN(CCc3ccccc3)CC2)CC1 [CBK261923]
viability at 28.5 h, 10 µM: 108%

CCn1c2ccccc2c2cc(CN(CCN(C)C)Cc3ccccc3)ccc21 [CBK261924]
viability at 28.5 h, 10 µM: 102%

CN1CCC(N(C)C2CCN(Cc3ccccc3)CC2)CC1 [CBK261925]
viability at 28.5 h, 10 µM: 85.8%

c1ccc(CCN2CCC(N3CCOCC3)CC2)cc1 [CBK261928]
viability at 28.5 h, 10 µM: 85.2%

CN(C)CCN(C)C1CCN(Cc2ccccc2)CC1 [CBK261930]
viability at 28.5 h, 10 µM: 102%

S=C(Nc1ccccc1)NC1C2CN3CCN(C2)CC1(c1ccccc1)C3 (stereo not shown) [CBK261936]
viability at 28.5 h, 10 µM: 88.6%

CC(=O)Nc1ccccc1/C=C/c1ccc2c(C)cc(C)c(O)c2n1 [CBK261937]
viability at 28.5 h, 10 µM: 106%

CC(C)(C)c1cc(CCCOC(=O)CNc2ccccc2)cc(C(C)(C)C)c1O [CBK261939]
viability at 28.5 h, 10 µM: 101%

O=C(O)CCNS(=O)(=O)c1ccc(Br)cc1 [CBK261941]
viability at 28.5 h, 10 µM: 90.6%

COc1ccc(C(CC(=O)O)C(=O)O)cc1OC (stereo not shown) [CBK261943]
viability at 28.5 h, 10 µM: 90.4%

O=C(CNC(=O)c1cccc(Cl)c1)N/N=C/C=C/c1ccccc1 [CBK261947]
viability at 28.5 h, 10 µM: 90.4%

O=[N+]([O-])c1ccc(NCCNS(=O)(=O)c2ccccc2)cc1 [CBK261948]
viability at 28.5 h, 10 µM: 96.1%

CCN(CC)CCOc1c(C)cccc1Cl [CBK261950]
viability at 28.5 h, 10 µM: 95.9%

CC1(C)CC(NC(=O)C(=O)NC2CC(C)(C)NC(C)(C)C2)CC(C)(C)N1 [CBK261951]
viability at 28.5 h, 10 µM: 98.9%

O=C(CNC(=O)c1ccccc1F)N/N=C/c1cccs1 [CBK261953]
viability at 28.5 h, 10 µM: 97.8%

COc1c(O)ccc(/C=N/NC(=O)COc2c(Br)cc(Br)cc2Br)c1[N+](=O)[O-] [CBK261957]
viability at 28.5 h, 10 µM: 95.9%

O=C(N/N=C\c1ccc([N+](=O)[O-])o1)c1nc(-c2ccccc2)cc(-c2ccccc2)n1 [CBK261958]
viability at 28.5 h, 10 µM: 95.5%

CC(C)(C)c1cc(CCC(=O)N/N=C/c2ccco2)cc(C(C)(C)C)c1O [CBK261960]
viability at 28.5 h, 10 µM: 110%

O=C(N/N=C\c1cccc(O)c1)C(=O)N/N=C/c1cccc(O)c1 [CBK261962]
viability at 28.5 h, 10 µM: 87.6%

CC(C)(C)c1cc(CCC(=O)N2CCN(C(=O)CCc3cc(C(C)(C)C)c(O)c(C(C)(C)C)c3)CC2)cc(C(C)(C)C)c1O [CBK261963]
viability at 28.5 h, 10 µM: 91.1%

COc1ccccc1/C=N/NC(=O)COc1c(Br)cc(Br)cc1Br [CBK261966]
viability at 28.5 h, 10 µM: 95.2%

NNC(=O)CNS(=O)(=O)c1ccccc1 [CBK261967]
viability at 28.5 h, 10 µM: 97.9%

O=C(CCC(=O)Nc1ccccc1)N/N=C/c1ccco1 [CBK261968]
viability at 28.5 h, 10 µM: 108%
